Results on 3 compounds are retold here after patent US20260209260A1, “VECTORIZED NHC IRIDIUM(III) COMPLEXES AND USE THEREOF IN PHOTODYNAMIC THERAPY AND/OR DIAGNOSTIC” (CENTRE NATIONAL DE LA RECHERCHE SCIENTIFIQUE, priority 2022, published 2026).

Like-named read-outs stand apart in the source and are kept apart here. Where only a bound is given, the exact number is not on record here.

Series [1] can be described thus: Lipophilicity: octanol-water partition coefficient, shake-flask method. The method in brief: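 Octanol and water mutually pre-saturated for 24 h; compound ([…] stock in aqueous phase) partitioned against equal volume n-octanol, mixed 15 min, phases separated by centrifugation.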
Series [2] is described as follows: UV/Vis absorption spectra. It counts as physicochemical. Conditions: room temperature, air-saturated CH2Cl2 or CH2Cl2/MeOH (1:1), 50 μM; ε in brackets, sh = shoulder. On the procedure:
UV/Vis absorption spectra were recorded at RT on solutions contained in quartz cuvettes (optical pathlength 1 cm, Hellma®) with a PerkinElmer® UV/VIS/NIR spectrophotometer Lambda 950 and a PerkinElmer® detector UV/VIS/NIR Accessory 2D Detector Module.

Series [3] is described as follows: Luminescence emission spectra and quantum yield. It counts as physicochemical. The following applies: for ΦP emission phosphorescence quantum yield: room temperature, reference POPOP in hexane or rhodamine B in ethanol. The method in brief: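 Spectrofluorometric fluorescence/phosphorescence emission spectra of the iridium(III) complexes recorded in CH2Cl2 at room temperature. Quantum yields by the Demas–Crosby relative method on solutions at RT, from integrated emission band areas versus a reference standard of known yield, corrected for solvent refractive index.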

The nature of series [4]: Emission lifetime measurement. It counts as physicochemical. Summed up: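 Emission lifetimes measured by time-correlated single-photon counting (0.5 ns time resolution), excitation from a D2 lamp and a 405 nm pulsed diode laser. Estimated error 5% on lifetime.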
For series [5], the system named is MC3T3 osteoblast cells (non-tumor). As to the kind of experiment: Cell viability assay (MTT), dark and blue light. It counts as cell-based, Murine. The following applies: for Photosensitizing index (PI): MC3T3, dark vs blue light. The method in brief: (§1)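 72 h continuous exposure in the dark, or 8 h dark incubation then 10 min irradiation and dark incubation up to 72 h; 0.1% (v/v) DMSO throughout. Viability read by MTT, formazan absorbance at 570 nm. At least three independent experiments in triplicate.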

Series [6] deals with NIH-3T3 fibroblast cells (non-tumor). Kind of series: Cell viability assay (MTT), dark and blue light. Conditions: for Photosensitizing index (PI): NIH-3T3, dark vs blue light. Format: cell-based, Murine. Summed up: as §1
The subject of series [7] is T24 bladder cancer cells. Kind of series: Cell viability assay (MTT), dark and blue light. The following applies: for GI50: read-out: GI50. It counts as cell-based, Human. The method in brief:
as §1

For series [8], the system named is cancer cells (all tumor cell lines tested). Kind of series: Cell viability assay (MTT), summary over the cancer cell lines tested. It counts as cell-based, Human. The protocol:
(§2) Cells were grown in humidified incubators at 37° C. in 5% CO2. Murine MC3T3 osteoblast and NIH-3T3 fibroblast cells-used as non-tumor cell models-were cultured in a-MEM medium and DMEM medium supplemented with 10% fetal bovine serum (FBS) and 1% Penicillin/Streptomycin (P/S) antibiotics, respectively. Human T24 bladder, MGHU3 bladder, Scaber bladder, A549 lung, MCF7 breast, MiaPaCa2 pancreas cancer cells were cultured in DMEM medium supplemented with 10% FBS and 1% P/S antibiotics. […] Human Hela cervix and HepG2 liver cancer cells were cultured EMEM medium supplemented with 10% FBS and 1% P/S antibiotics.
(§3) MTT reagent (3-(4,5-dimethylthiazol-2-yl)-2,5-diphenyltetrazolium bromide) was used to determine cell death as originally described by Mosmann. Briefly, cells were seeded from 5,000 to 10,000 cells/well in 24-well plates (1 mL) depending on the cell type and allowed to attach overnight. The complexes were prepared in DMSO. The concentration of the complexes was calculated based on the elemental composition of the complexes determined by the elemental analyses. All cell viability experiments were carried out with a fixed concentration of 0.1% (v/v) DMSO. After 72 h of treatment, cells were incubated at 37° C. and 5% CO2 with 25 μL of MTT solution (5 mg/ml; Sigma-Aldrich) in 24-well plates for 3 to 4 h. After solubilization with 500 μL of DMSO, formazan was quantified spectrophotometrically with a microplate reader at 570 nm absorbance (ClarioSTAR, BMG LabTech). […] All the results were calculated from data obtained in at least three independent experiments performed in triplicate.
(§4) Two sets of experiments were conducted in parallel for each complex to be studied:
(§5) 1. The cells were incubated with the different complexes (in the dark) for 72 h.
(§6) 2. The cells were incubated for 8 h with the different complexes (in the dark), then irradiated for 10 min, followed by an incubation in the dark up to 72 h.

The test system of series [9] is non-tumor cells (NIH-3T3 and MC3T3). As to the kind of experiment: Cell viability assay (MTT), summary over the non-tumor models. The following applies: for GI50: blue light 458 nm, read-out: GI50 mean over non-tumor models, irradiated. Format: cell-based, Murine. On the procedure:
as §2, §3, §4, §5, §6

Setting [10] is: MC3T3, blue light, read-out: GI50.
Setting [11] is: NIH-3T3, blue light, read-out: GI50.
The mark [12] stands for this setting: 8 h in the dark, blue light 458 nm 10 min, then dark up to 72 h, read-out: GI50 MC3T3 Blue.
[13] abbreviates: in the dark, 72 h, read-out: GI50 MC3T3 Dark.
Setting [14] is: 8 h in the dark, blue light 458 nm 10 min, then dark up to 72 h, read-out: GI50 NIH-3T3 Blue.
Where [15] appears, read: in the dark, 72 h, read-out: GI50 NIH-3T3 Dark.

As for `F[P-](F)(F)(F)(F)F.O=C(NCCCn1cc[n+]2[c]1[Ir-3]13([c]4c(sc5ccccc45)-c4cccc[n+]41)([c]1c(sc4ccccc14)-c1cccc[n+]13)[n+]1ccccc1-2)[c-]1cccc1.[Fe+2].c1cc[cH-]c1` [IV-j], the Log P – broadly, the decadic logarithm of the partition coefficient of the neutral form, usually between octanol and water – in series [1] worked out at 1.07 ± 0.07. Moreover, the “λmax (nm) ε (M^−1 · cm^−1)” value in [2] is given as 322 (15400), 342 (sh) (14040), 434 (6150) nm (M^−1 · cm^−1). For the same compound, in series [3], the “ΦP emission phosphorescence quantum yield” value is 0.01%. In addition, in series [4], the τ1 emission lifetime was found to be 196 ns. For the same compound, the GI50 (in general, the concentration that inhibits growth by half) in series [5] (setting [10]) was determined as 3.9 µM; in series [6] (setting [11]), 14 µM; in series [6] (NIH-3T3, dark, read-out: GI50), 62.8 µM; in series [7] (T24, blue light), 0.13 µM; in series [7] (T24, dark) it was 2.8 µM; in series [8] (blue light 458 nm, read-out: GI50 mean over cancer cells, irradiated), 0.228 µM. Besides, the GI50 in series [9] was 8.4 µM. The “Photosensitizing index (PI)” value was 4.2 in [5]; 4.5 in [6]; 21.5 in [7] (T24, dark vs blue light). The “SI (vs NIH-3T3)” value is given as 108.5 in [7] (T24, blue light) and 22.7 in [7] (T24, dark). Moreover, the “selectivity for cancer cells over non-tumor cells, in words” value in series [8] is given as “most selective effects under irradiated conditions”. The “PI values, mean over cancer cells” value in series [8] (dark vs blue light 458 nm) came to 39.8 fold. In addition, the “increase in cell toxicity in cancer cells compared to non-tumor models” value in [8] (irradiated conditions) amounted to 39 fold. For the same compound, the “mean PI value in NIH-3T3 and MC3T3 non-tumoral cells” value in series [9] (dark vs blue light 458 nm) was determined as 2.8 fold.

`F[P-](F)(F)(F)(F)F.O=C(O)CC[C@H](NC(=O)N[C@@H](CCCCNC(=O)CCn1cc[n+]2[c]1[Ir-3]13([c]4ccccc4-c4c5ccccc5cc[n+]41)([c]1ccccc1-c1c4ccccc4cc[n+]13)[n+]1ccccc1-2)C(=O)O)C(=O)O` [III-h]: in [1] (n-octanol/water, shake-flask, mean of at least three determinations), the “Log P” value is recorded as 0.88 ± 0.02. In addition, the “λmax (nm) ε (M^−1 · cm^−1)” value in series [2] was 336 (sh) (23695), 352 (sh) (22270), 378 (sh) (15520), 435 (9310) nm (M^−1 · cm^−1). Also, in series [3] (CH2Cl2, room temperature, λexc 365 nm or 470 nm), the λem is given as 628 nm. In addition, the “ΦP emission phosphorescence quantum yield” value in series [3] is reported as 3.0%. Also, the τ1 emission lifetime in series [4] was 215 ns. Also, the GI50 in series [5] (setting [12]) amounted to 8.3 µM; in series [5] (setting [10]) it was 8.3 µM; in [5] (MC3T3, dark, read-out: GI50), 52.4 µM; in series [5] (setting [13]), 52.4 µM; in series [6] (setting [14]), 19 µM; in series [6] (setting [11]) it was 19 µM. Moreover, the 50% growth inhibitory concentration (GI50) is greater than 100 µM in [6] (NIH-3T3, dark, read-out: GI50); greater than 100 µM in [6] (setting [15]); 22.8 µM in series [9]. Also, the “Photosensitizing index (PI)” value in [5] is on record as 6.3; in series [6] it was greater than 5.3. Moreover, in [8], the “selectivity for cancer cells over non-tumor cells, in words” value was “most selective effects under irradiated conditions”.

For `F[P-](F)(F)(F)(F)F.O=C(O)CC[C@H](NC(=O)N[C@@H](CCCCNC(=O)CCn1cc[n+]2[c]1[Ir-3]13([c]4ccccc4-c4sc5ccccc5[n+]41)([c]1ccccc1-c1sc4ccccc4[n+]13)[n+]1ccccc1-2)C(=O)O)C(=O)O` [III-k], the “Log P” value in series [1] was −0.14 ± 0.01. Further, the “λmax (nm) ε (M^−1 · cm^−1)” value in series [2] was 321 (39070), 370 (sh) (12560), 406 (10170) nm (M^−1 · cm^−1). Further, in series [3], the “ΦP emission phosphorescence quantum yield” value is listed as 6.1%. The compound also registered a τ1 emission lifetime in [4] of 649 ns. In addition, the GI50 in series [5] (setting [12]) was found to be 33.8 µM; in series [5] (setting [10]), 33.8 µM; in series [5] (MC3T3, dark, read-out: GI50), 95.1 µM; in series [5] (setting [13]), 95.1 µM; in series [6] (setting [14]), 30 µM; in series [6] (setting [11]) it was 30 µM. Further, the GI50 was greater than 100 µM in series [6] (NIH-3T3, dark, read-out: GI50); greater than 100 µM in series [6] (setting [15]); 22.8 µM in series [9]. Besides, the “Photosensitizing index (PI)” value in series [5] is reported as 2.8; in series [6] it was greater than 3.3. Moreover, the “selectivity for cancer cells over non-tumor cells, in words” value in [8] is recorded as “most selective effects under irradiated conditions”.
